# Measured values from patent publication US8846845B2, “Bioabsorbable and biocompatible polyurethanes and polyamides for medical devices” (Bezwada Biomedical, LLC, priority 2005, dated 2014).
# Experiment: In vitro hydrolysis of functionalized phenolics in pH 7.4 buffer at reflux, monitored by TLC
# Format: physicochemical
# Conditions: reflux temp. (100° C.); 500 mg compound in 50 ml pH 7.4 buffer solution; TLC against original phenolic as control
# Experimental: Selected compounds were examined for the rate of hydrolysis by conducting in vitro hydrolysis studies at reflux temp. (100° C.). For each experiment, 500 mg of a func-tionalized compound and 50 ml of pH 7.4 buffer solution (purchased from Aldrich Chemical) were charged into a 100 ml round bottom flask fitted with a condenser and the contents were refluxed. In vitro hydrolysis of the functionalized phenolics was monitored by thin layer chromatography (TLC) using corresponding starting material (original phenolic) as a control. In vitro hydrolysis was continued at reflux until the functionalized molecule hydrolyzed to the starting phenolic compound.
row,Compound,time in which the functionalized compound was hydrolyzed to the starting phenolic compound [h]
1,"COC(=O)COC(=O)COc1ccc(NC(C)=O)cc1 [Example 48, (4-Acetylaminophenoxy)acetic acid methoxycarbonyl methyl ester]",8
2,"CC(Oc1ccc(N)cc1)C(=O)OCCOC(=O)C(C)Oc1ccc(N)cc1 (stereo not shown) [Example 32, 2-(4-Aminophenoxy)-propionic acid 2-[2-(4-aminophenoxy)-propionyloxy]-ethyl ester]",40
3,"Nc1ccc(OCC(=O)OCCOC(=O)COc2ccc(N)cc2)cc1 [Example 25, (4-Amino-phenoxy)-acetic acid-2-[2-(4-amino-phenoxy)-acetoxy]-ethyl ester]",11.5
4,"COC(=O)COC(=O)COc1ccc(N)cc1 [Example 45, (4-Aminophenoxy)-acetic acid methoxycarbonylmethyl ester]",3
